The supplement of paper PMC13380429

Key:
Settings in all cases: 72 h
[1] = tested on: Caco-2; assay: cell viability relative to DMSO; higher = less toxic
[2] = tested on: Calu-3; assay: as above
[3] = tested on: HepG2; assay: as above
[4] = tested on: U2OS; assay: as above
[5] = tested on: Vero E6; assay: as above
[6] = tested on: Caco-2; assay: relative viability EC50 (midpoint between 100% and the lowest measured viability); higher = less toxic
[7] = tested on: Calu-3; assay: as above
[8] = tested on: U2OS; assay: as above
[9] = tested on: Vero E6; assay: as above
[10] = tested on: Caco-2; assay: drug sensitivity score (DSS) for viability; higher = more toxic; extreme values may be limits of the assay
[11] = tested on: Calu-3; assay: as above
[12] = tested on: HepG2; assay: as above
[13] = tested on: U2OS; assay: as above
[14] = tested on: Vero E6; assay: as above
[15] = tested on: HepG2; assay: relative viability EC50 (midpoint between 100% and the lowest measured viability); higher = less toxic

SMILES	cell viability ([1]; 1 nM) [%]	cell viability ([1]; 10 nM) [%]	cell viability ([1]; 100 nM) [%]	cell viability ([1]; 1000 nM) [%]	cell viability ([1]; 10000 nM) [%]	cell viability ([2]; 1 nM) [%]	cell viability ([2]; 10 nM) [%]	cell viability ([2]; 100 nM) [%]	cell viability ([2]; 1000 nM) [%]	cell viability ([2]; 10000 nM) [%]	cell viability ([3]; 1 nM) [%]	cell viability ([3]; 10 nM) [%]	cell viability ([3]; 100 nM) [%]	cell viability ([3]; 1000 nM) [%]	cell viability ([3]; 10000 nM) [%]	cell viability ([4]; 1 nM) [%]	cell viability ([4]; 10 nM) [%]	cell viability ([4]; 100 nM) [%]	cell viability ([4]; 1000 nM) [%]	cell viability ([4]; 10000 nM) [%]	cell viability ([5]; 1 nM) [%]	cell viability ([5]; 10 nM) [%]	cell viability ([5]; 100 nM) [%]	cell viability ([5]; 1000 nM) [%]	cell viability ([5]; 10000 nM) [%]	relative viability EC50 [6] [µM]	relative viability EC50 [7] [µM]	relative viability EC50 [8] [µM]	relative viability EC50 [9] [µM]	drug sensitivity score [10]	drug sensitivity score [11]	drug sensitivity score [12]	drug sensitivity score [13]	drug sensitivity score [14]	relative viability EC50 [15] [µM]
CC[C@H]1OC(=O)[C@@](C)(F)C(=O)[C@H](C)[C@@H](O[C@@H]2O[C@H](C)C[C@H](N(C)C)[C@H]2O)[C@](C)(OC)C[C@@H](C)C(=O)[C@H](C)[C@H]2N(CCCCn3cc(-c4cccc(N)c4)nn3)C(=O)O[C@]12C [solithromycin]	105	90.6	101	107	93.3	104	100	98.4	97.2	89.8	102	102	87.4	94.2	58.7	97.6	95.5	94.6	103	91	98.2	100	97.2	104	93.4	> 10	> 10	> 10	> 10	0	0	3.1	0	0	
COc1cccc(-c2cc(=O)c3ccccc3o2)c1N	98.5	108	92.7	95.9	91.4	107	103	103	106	83.7	99.7	87.8	94.1	91.8	64.2	99.5	97.7	98.7	101	92	109	108	105	104	92	> 10	> 10	> 10	> 10	0	0.2	2.9	0	0	
CCOC(=O)N1c2ccc(C(F)(F)F)cc2[C@@H](N(Cc2cc(C(F)(F)F)cc(C(F)(F)F)c2)C(=O)OC)C[C@H]1CC	108	108	100	101	87.2	96.4	98.9	98.4	86	69	99.3	106	94.3	93.6	75.5						98.3	99.1	96.2	98.4	85.2	> 10			> 10	0.1	2.8	1.5		0.4	> 10
